Measured values from publication PMC12643529 (ACS Infectious Diseases, 2025).

Legend:
[1] = system: bloodstream form of T. brucei; assay: alamarBlue (resazurin) antitrypanosomal assay; type: cell-based, Trypanosoma brucei; conditions: for IC50: bloodstream form, 72 h, alamarBlue/resazurin, error as σ; for selectivity index (SI) T. brucei: SI = IC50 MRC-5/IC50 T. brucei (resazurin assay)
[2] = system: promastigote form of L. major; assay: MTT-based antileishmanial assay, promastigotes; type: cell-based, Leishmania major; conditions: for IC50: promastigotes, 72 h, MTT, error as σ; for selectivity index (SI) L. major: SI = IC50 MRC-5/IC50 L. major promastigotes
Method: The antileishmanial activity of the compounds against the promastigote form of L. major, the […] was determined using an MTT-based assay (Sigma-Aldrich). Stock solutions of the compounds were prepared in DMSO with the final DMSO percentage in each well maintained below 1%. 4 × 10^6 parasites per mL were incubated at 28 °C in 96-well plates (50 μL/well) either alone or in the presence of increasing concentrations of compounds DMSO for 72 h. After the incubation period, 10 μL of MTT (5 mg/mL) was added to each well, and the parasites were incubated for 4 h at 28 °C. Subsequently, cell lysis was performed using 50 μL/well of 20% SDS. […] Data were presented as the average of at least three independent measurements, each conducted under triplicate conditions. […] “single marker” […] S7

MRC-5 cells = assay: alamarBlue cytotoxicity assay, MRC-5; type: cell-based; conditions: 72 h
HeLa cells = assay: alamarBlue antiproliferative assay, HeLa; type: cell-based, human; conditions: for IC50: Homo sapiens, HeLa, 72 h, alamarBlue; for selectivity index (SI) HeLa: SI = IC50 MRC-5/IC50 HeLa
HT-29 cells = assay: alamarBlue antiproliferative assay, HT-29; type: cell-based, human; conditions: for IC50: Homo sapiens, HT-29, 72 h, alamarBlue; for selectivity index (SI) HT-29: SI = IC50 MRC-5/IC50 HT-29
[3] = system: F21T K+ (human telomeric G-quadruplex, potassium buffer); type: binding; conditions: ligand 10 μM, oligonucleotide 200 nM, 10 mM KCl
[4] = system: F21T Na+ (human telomeric G-quadruplex, sodium buffer); type: binding; conditions: ligand 10 μM, oligonucleotide 200 nM, 100 mM NaCl
[5] = system: FEbr1T (T. brucei G-quadruplex); assay: FRET melting assay, FEbr1T; type: binding; conditions: ligand 10 μM, oligonucleotide 200 nM, 10 mM KCl
[6] = system: FMycT (c-Myc promoter G4); assay: FRET melting assay, FMycT; type: binding; conditions: ligand 10 μM, oligonucleotide 200 nM, 1 mM KCl
[7] = system: Fmt6363T (human mitochondrial G-quadruplex); assay: FRET melting assay, Fmt6363T; type: binding; conditions: ligand 10 μM, oligonucleotide 200 nM, 10 mM KCl
[8] = system: F10T (hairpin duplex DNA); type: binding; conditions: ligand 10 μM, oligonucleotide 200 nM, 10 mM KCl
[9] = system: F21T (DNA, G4) GGGTTAGGGTTAGGGTTAGGG; assay: FRET melting; conditions: 10 mM Li cacodylate, compound 10 µM, DNA 200 nM
[10] = system: FEbr1T (DNA, G4) GGGCAGGGGGTGATGGGGAGGAGCCAGGG; assay: FRET melting; conditions: K+ (10 mM KCl), 90 mM LiCl; 10 mM Li cacodylate; compound 10 µM, DNA 200 nM
[11] = system: FMycT (DNA, G4) TTGAGGGTGGGTAGGGTGGGTAA; assay: FRET melting; conditions: K+ (1 mM KCl), 99 mM LiCl; 10 mM Li cacodylate; compound 10 µM, DNA 200 nM
THP-1 cells = assay: alamarBlue cytotoxicity assay, PMA-differentiated THP-1; type: cell-based, human; conditions: PMA-differentiated THP-1, 72 h
[12] = system: intracellular amastigote form of L. major; assay: Luciferase assay, intracellular amastigotes in THP-1 macrophages; type: cell-based, Leishmania major; conditions: for IC50: intracellular amastigotes in THP-1 macrophages, 72 h, luciferase; for selectivity index (SI) THP-1: SI = IC50 THP-1/IC50 L. major amastigotes
Method: The antileishmanial activity of the compounds against the intracellular form of L. major was evaluated using the Luciferase Assay System kit from Promega. THP-1 cells were seeded at a density of 3 × 10^5 cells/mL in 96-well plates (100 μL/well) and treated with 20 ng/mL PMA (phorbol 12-myristate 13-acetate, Sigma) for 48 h to induce differentiation. Postdifferentiation, the cells were washed, and fresh medium was added (100 μL/well) before being reincubated. Following an additional 24 h, the wells were washed, and 50 μL of L. major parasites at a density of 1.5 × 10^6 parasites/mL (suspended in RPMI-1640 medium 5% hiFBS and 5% penicillin/streptomycin) were added to the wells. The plates were then incubated at 35 °C in 5% CO2. After 24 h, the wells were washed three times with PBS, and fresh medium with increasing concentrations of compounds was added (100 μL/well). After another 72 h of incubation, the cells were then treated with 25 μL of lysis buffer and stored at −80 °C. Following 24 h, 25 μL of luciferase enzyme substrate was added to each well, and the luciferase activity of the amastigotes was determined using a TECAN Infinite F200 microplate reader. […] Data were presented as the average of at least three independent measurements, each conducted under triplicate conditions.
Parasite and cell culturing […]
Leishmania major (MHOM/IL/80/Friedlin) promastigotes and its derivative luminescent strain L. major LucRE9 with the luciferase gene integrated into the parasite genome (LUC) were cultured at 28 °C, 5 % CO2 in modified RPMI-1640 medium (Invitrogen, Carlsbad, CA) supplemented with 10 % hiFBS6, including […] blasticidin in the LucRE9 strain. 7 Parasites were maintained in culture in their […] growth phase (below 2 million T. brucei parasites per mL, ,10 million L. major parasites per mL for promastigotes experiments), and in the stationary phase , 20 million L. major parasites per mL for THP -1 infection experiments.
MRC-5 cell line (human lung fibroblast) was grown in monolayer at 37 °C, 5 % CO2 in DMEM medium (1 g/L glucose) supplemented with 10% hiFBS, 100 U/mL penicillin, […] streptomycin and 2 mM L-glutamine.8
THP-1 cells (human monocytic cell line) were maintained in RPMI-1640 medium supplemented with 10% heat-inactivated fetal bovine serum (hiFBS) and 5 % penicillin/streptomycin (37 °C, 5 % CO2, and 100 % humidity). […]

Structure (SMILES)	IC50 ([1]; Trypanosoma brucei) [µM]	IC50 ([2]; Leishmania major) [µM]	selectivity index (SI) L. major [2]	IC50 (MRC-5 cells; MRC5, human lung fibroblasts) [µM]	IC50 (HeLa cells) [µM]	selectivity index (SI) HeLa (HeLa cells)	IC50 (HT-29 cells) [µM]	selectivity index (SI) HT-29 (HT-29 cells)	ΔTm F21T K+ [3] [°C]	ΔTm F21T Na+ [4] [°C]	ΔTm FEbr1T [5] [°C]	ΔTm FMycT [6] [°C]	ΔTm Fmt6363T [7] [°C]	ΔTm F10T [8] [°C]	selectivity index (SI) T. brucei [1]	further results
C[n+]1c(/C=C/c2ccc(-c3ccc(-c4ccc(N(c5ccccc5)c5ccccc5)cc4)cc3)o2)sc2ccccc21.[I-] [compound 2d]	0.01 ± 0.005	0.33 ± 0.017	9.8	3.24 ± 0.14	5.28 ± 0.11	0.62	3.79 ± 0.13	0.86	18.5	22.9 ± 0.9	20.5	16.7 ± 0.7	18.5 ± 0.9	1.0 ± 0.1	–	ΔTm ([9]; K+ (10 mM KCl), 90 mM LiCl): 18.5 ± 1.9 °C; ΔTm ([9]; Na+ (100 mM NaCl)): 22.9 ± 0.9 °C; ΔTm [10]: 20.5 ± 1.3 °C; ΔTm [11]: 16.7 ± 0.7 °C
C[C@@H]1[C@H](O)[C@@H](C)/C=C/C=C/C=C/C=C/C=C/C=C/C=C/[C@H](O[C@@H]2O[C@H](C)[C@@H](O)[C@H](N)[C@@H]2O)C[C@@H]2O[C@](O)(C[C@@H](O)C[C@@H](O)[C@H](O)CC[C@@H](O)C[C@@H](O)CC(=O)O[C@H]1C)C[C@H](O)[C@H]2C(=O)O [AmB, Amphotericin B]	–	1.92 ± 0.05	–	–	–	–	–	–	–	–	–	–	–	–	–	IC50 (THP-1 cells; Homo sapiens): 9.89 ± 1.98 µM; IC50 ([12]; Leishmania major): 4.41 ± 1.96 µM; selectivity index (SI) THP-1 [12]: 2.24
C[n+]1c(/C=C/c2ccc(N(c3ccccc3)c3ccccc3)cc2)sc2ccccc21.[I-] [compound 2c]	0.34 ± 0.13	–	–	–	8.89 ± 1.59	0.58	8.91 ± 0.88	0.58	12.7 ± 0.4	9.4 ± 0.5	13.5	8.6 ± 1.0	10.2 ± 0.5	0.7 ± 0.1	–	–
COS(=O)(=O)[O-].Cc1cc2c3c([n+](C)c4ccc(F)cc4c3c1)-c1cc(F)ccc1N2C [RHPS4, 3,11-Difluoro-6,8,13-Trimethyl-8H-Quino[4,3,2-Kl]Acridinium Methosulfate, reference compound]	–	–	93.64	–	–	–	–	–	–	–	–	–	–	–	11.77	IC50 [1]: 0.35 ± 0.06 µM; IC50 [2]: 0.044 ± 0.015 µM; IC50 (MRC-5 cells; human lung fibroblasts): 4.12 ± 0.52 µM; IC50 (THP-1 cells): 214 ± 3.36 µM; selectivity index (SI) MRC-5 ([12]; SI = IC50 MRC-5/IC50 L. major amastigotes): 137.33; selectivity index (SI) THP-1 [12]: 7,131; IC50 [12]: 0.03 ± 0.02 µM
CN(C)c1ccc(/C=C/c2sc3ccccc3[n+]2C)c2ccccc12.[I-] [2g]	0.02 ± 0.015	0.17 ± 0.04	23.9	4.01 ± 0.09	29.1 ± 1.05	0.14	89.5 ± 9.55	0.04	9.7 ± 0.2	3.4 ± 0.5	8.9 ± 0.5	3.0 ± 1.1	7.7 ± 0.3	0.4 ± 0.1	–	ΔTm ([9]; Na+ (100 mM NaCl)): 3.4 ± 0.5 °C; ΔTm [11]: 3.0 ± 1.1 °C
CSc1ccc(OCc2ncc([N+](=O)[O-])n2C)cc1 [fexinidazole, reference compound]	0.88 ± 0.02	–	–	–	–	–	–	–	–	–	–	–	–	–	–	–
Cn1cccc1-c1ccc(/C=C/c2sc3ccccc3[n+]2C)s1 [compound 2f]	0.61 ± 0.045	0.61 ± 0.092	6.0	3.68 ± 0.17	–	–	–	–	–	–	–	–	–	–	6.0	–
CCCCCCCCCCCCCCCCOP(=O)([O-])OCC[N+](C)(C)C [miltefosine]	–	5.71 ± 0.46	–	–	–	–	–	–	–	–	–	–	–	–	–	IC50 (THP-1 cells; Homo sapiens): 55.19 ± 0.11 µM; IC50 ([12]; Leishmania major): 5.1 ± 0.56 µM; selectivity index (SI) THP-1 [12]: 10.82
C[n+]1c(/C=C/c2ccccc2)sc2ccccc21.[I-] [compound 2a]	0.37 ± 0.18	0.48 ± 0.11	4.2	2.02 ± 0.12	–	–	–	–	–	–	–	–	–	–	5.5	–
Cc1ccc(C(=O)Nc2ccc(S(=O)(=O)O)c3cc(S(=O)(=O)O)cc(S(=O)(=O)O)c23)cc1NC(=O)c1cccc(NC(=O)Nc2cccc(C(=O)Nc3cc(C(=O)Nc4ccc(S(=O)(=O)O)c5cc(S(=O)(=O)O)cc(S(=O)(=O)O)c45)ccc3C)c2)c1 [suramin, reference compound]	0.0042 ± 0.0003	–	–	–	–	–	–	–	–	–	–	–	–	–	–	–
C[n+]1c(/C=C/c2ccc(-c3ccc(N(c4ccccc4)c4ccccc4)cc3)s2)sc2ccccc21 [compound 2i]	1.83 ± 0.06	0.045 ± 0.012	86.2	3.88 ± 0.17	–	–	–	–	–	–	–	–	–	–	2.12	–
Cn1cccc1/C=C/c1sc2ccccc2[n+]1C.[I-] [compound 2e]	2.29 ± 0.31	0.24 ± 0.029	39.6	9.4 ± 1.06	78 ± 8.26	0.12	76.4 ± 1.44	0.12	–	–	–	–	–	–	4.1	–
C[n+]1c(/C=C/c2cc3c4c(c2)CCCN4CCC3)sc2ccccc21.[I-] [compound 2h]	0.00026 ± 0.00017	–	–	–	0.84 ± 0.01	0.09	1 ± 0.16	0.08	16.9	9.4 ± 0.3	14.1	12.6 ± 0.9	15.0 ± 0.4	0.9 ± 0.4	–	–
